# *1 amine or outer side, *2 acyl side, *3 side chain or, on linkers, in order; H or OH if unused. Where a SMILES comes first, the peptide text is derived from it. Bridges are numbered along the chain shown (N, C = ends). [ ]: non-standard residue; d: D form. The star is where a group is joined. Orn(4R-OH,5R-OH) = O=C([C@H](C[C@@H](O)[C@@H](O)N[*:3])N[*:1])[*:2]; hTyr(3S-OH,4S-OH) = N[C@H](C(=O)O)[C@H](O)[C@@H](O)c1ccc(O)cc1; Pro(3S-OH,4S-Me) = C[C@H]1CN[C@H](C(=O)O)[C@H]1O; Benzoyl(4-octyloxy) = CCCCCCCCOc1ccc(C(=O)*)cc1; Hyp = O=C(O)[C@@H]1C[C@@H](O)CN1
# Experiments:
# [1] = test system: A. fumigatus wild-type and ΔFOS-1 strains; assay: Sensitivity to antifungals, variation of NCCLS M27T-protocol (microtiter broth); assay type: cell-based, Aspergillus fumigatus; details: 1×RPMI medium, 48 hours, 37° C., 96-well plates
# Protocol: Sensitivity to antifungals: To assess the differential sensitivities of the wild-type and ΔFOS-1 strains to a number of antifungal compounds, the minimum inhibitor concentration of amphotericin B, nikkomycin Z, benomyl, miconazole, ketoconazole, fluconazole, cilofungin, 5-fluorocytosine and calcofluor white M2R new against the wild-type and ΔFOS-1 strains was determined. This fungal sensitivity was determined using a variation of the National Committee for Clinical Laboratory Standards (NCCLS) M27T-protocol (Galgiani et al., NCCLS, 15:1-29 [1995]). Briefly, serial dilutions of the anti-fungal drugs were made in 100 μl 1×RPMI medium (Life Technologies) and an additional 100 μl 1×RPMI medium containing 2×10^4 conidia/ml of each strain was added to each well of 96-well microtiter plates. Plates were incubated for 48 hours with gentle shaking at 37° C. The amount of growth in each well was estimated using a inverted phase microscope.
# [2] = test system: C. albicans wild-type, ΔCOS-1/ΔCOS-1, hemizygous and reconstituted strains; assay: Sensitivity of C. albicans COS-1 strains to antifungal drugs in liquid RPMI medium (NCCLS M27-T); assay type: cell-based, Candida albicans
# Protocol: For determination of viability and growth, each strain tested was grown from −80° C. stocks overnight at 37° C. in 50 ml of Sabouraud dextrose broth (30 g/L) (Difco, Catalog Number 0382-17-9) in 250 ml flasks with shaking at 180 rpm. Three hundred milliliter Nephelo flasks (Bellco) containing 60 ml medium were inoculated with 1×10^6 cells/ml (final concentration) from the starter culture and incubated at 37° C. with orbital shaking at 180 rpm. The optical density of each culture was determined periodically using a Klett-Summerson Photoelectric Colorimeter (Klett). For cell viability determination, overnight cultures were diluted and known numbers (as determined by hemacytometer counts) were plated onto agar-solidified SD medium and the numbers of resulting colonies determined. The sensitivity of each strain to a number of antifungal drugs in liquid medium was performed essentially as described in the National Committee for Clinical Laboratory Standards (NCCLS) 27T-protocol (Galgiani et al., NCCLS, 15:1-29 [1995]).
# [3] = test system: A. fumigatus wild-type and ΔFOS-1 strains; assay: Effect of oxidative stress compounds on hyphal growth; assay type: cell-based, Aspergillus fumigatus; details: agar-solidified MPG medium; diamide 0-2 mM or menadione 0-0.06 mM; 37° C., 3 days
# Protocol: Effect of oxidative stress compounds: To determine the effect of various oxidative stress-inducing compounds on hyphal growth in the wild-type and ΔFOS-1 strains, 2 μl water containing 1×10^3 conidia were placed as single spots onto 150 mm×15 mm petri plates containing 30 ml agar-solidified MPG medium. In addition, these agar plates contained either diamide (0-2 mM; Sigma) (an SH residue oxidant that attacks surface proteins; de Souza Pereira and Geibel, J. Mol. Cell Biochem., 201:17-24 [1999]), or menadione (0-0.06 mM; Sigma Aldrich) (a superoxide generator; Caricchio et al., Clin. Immunol., 93:65-74 [1999]). These plates were incubated at 37° C. for 3 days. Hyphal growth/extension rates were determined by recording the distance traveled by hyphal fronts after various times of incubation.
# [4] = test system: A. fumigatus wild-type strain; assay: Dicarboximide drug sensitivity: hyphal extension on agar-solidified MPG medium, wild-type strain; assay type: cell-based, Aspergillus fumigatus; details: mean ± standard deviation of at least 12 data points
# Protocol: (§1) Although an understanding of the mechanism is not necessary in order to use the present invention, resistance to dicarboximide antifungals by a number of fungi appears to involve a histidine kinase mutation. […] To test if the ΔFOS-1 strain was also resistant to vinclozolin, iprodione and procymidone, the growth of wild-type and ΔFOS-1 strains on medium containing each drug was examined. Briefly, wild-type and ΔFOS-1 conidia (1×10^3 in 2 μl) were inoculated onto agar-solidified MPG medium containing 10 μg/ml vinclozolin or iprodione, or 12 μg/ml procymidone. Hyphal extension rates in mm/hr were recorded, and a mean determined based on at least 12 individual data points. Results are shown±standard deviation. P values were calculated using the Students t test (http://nimitz.mcs.kent.edu/˜blewis/stat/tTest.html).
# [5] = test system: A. fumigatus ΔFOS-1 strain; assay: Dicarboximide drug sensitivity: hyphal extension on agar-solidified MPG medium, ΔFOS-1 strain; assay type: cell-based, Aspergillus fumigatus; details: mean ± standard deviation of at least 12 data points
# Protocol: as §1
# [6] = test system: OS-1 mutant strains of N. crassa; details: Beever 1983; cited from earlier work
# [7] = 10 μg/ml drug in agar-solidified MPG medium
# [8] = 12 μg/ml drug in agar-solidified MPG medium
Compound,Difference in minimum inhibitor concentration between wild-type and ΔFOS-1 strains [1],"Relative sensitivity of wild-type, ΔCOS-1/ΔCOS-1, hemizygous and reconstituted strains [2]",further results
Nc1nc(=O)[nH]cc1F [5-fluorocytosine],No differences in minimum inhibitor concentration,equally sensitive,
C[C@@H]1[C@H](O)[C@@H](C)/C=C/C=C/C=C/C=C/C=C/C=C/C=C/[C@H](O[C@@H]2O[C@H](C)[C@@H](O)[C@H](N)[C@@H]2O)C[C@@H]2O[C@](O)(C[C@@H](O)C[C@@H](O)[C@H](O)CC[C@@H](O)C[C@@H](O)CC(=O)O[C@H]1C)C[C@H](O)[C@H]2C(=O)O [amphotericin B],No differences in minimum inhibitor concentration,equally sensitive,
CCCCNC(=O)n1c(NC(=O)OC)nc2ccccc21 [benomyl],No differences in minimum inhibitor concentration,equally sensitive,
O=S(=O)([O-])c1cc(Nc2nc(Nc3ccccc3)nc(N(CCO)CCO)n2)ccc1/C=C/c1ccc(Nc2nc(Nc3ccccc3)nc(N(CCO)CCO)n2)cc1S(=O)(=O)[O-].[Na+].[Na+] [calcofluor white M2R new],No differences in minimum inhibitor concentration,,
"CCCCCCCCOc1ccc(C(=O)N[C@H]2C[C@@H](O)[C@@H](O)NC(=O)[C@@H]3[C@@H](O)[C@@H](C)CN3C(=O)[C@H]([C@@H](C)O)NC(=O)[C@H]([C@H](O)[C@@H](O)c3ccc(O)cc3)NC(=O)[C@@H]3C[C@@H](O)CN3C(=O)[C@H]([C@@H](C)O)NC2=O)cc1 [cilofungin] ({Benzoyl(4-octyloxy)}-[Orn(4R-OH,5R-OH)]T[Hyp][hTyr(3S-OH,4S-OH)]T[Pro(3S-OH,4S-Me)]; lactam 1-C)",No differences in minimum inhibitor concentration,equally sensitive,
CN(C)C(=O)/N=N/C(=O)N(C)C [diamide],,,Difference in hyphal growth/extension rates between wild-type and ΔFOS-1 strains [3]: No differences in hyphal growth/extension rates
OC(Cn1cncn1)(Cn1cncn1)c1ccc(F)cc1F [fluconazole],No differences in minimum inhibitor concentration,equally sensitive,
CC(C)NC(=O)N1CC(=O)N(c2cc(Cl)cc(Cl)c2)C1=O [iprodione],,,"Hyphal extension rate, wild-type [4, 7]: 0.29 ± 0.11 mm/hr; Hyphal extension rate, ΔFOS-1 [5, 7]: 0.52 ± 0.03 mm/hr"
CC(=O)N1CCN(c2ccc(OCC3COC(Cn4ccnc4)(c4ccc(Cl)cc4Cl)O3)cc2)CC1 (stereo not drawn) [ketoconazole],No differences in minimum inhibitor concentration,equally sensitive,
CC1=CC(=O)c2ccccc2C1=O [menadione],,,Difference in hyphal growth/extension rates between wild-type and ΔFOS-1 strains [3]: No differences in hyphal growth/extension rates
Clc1ccc(COC(Cn2ccnc2)c2ccc(Cl)cc2Cl)c(Cl)c1 (stereo not drawn) [miconazole],No differences in minimum inhibitor concentration,equally sensitive,
C[C@@H]([C@H](N)C(=O)N[C@H](C(=O)O)[C@H]1O[C@@H](n2ccc(=O)[nH]c2=O)[C@H](O)[C@@H]1O)[C@H](O)c1ccc(O)cn1 [nikkomycin Z],No differences in minimum inhibitor concentration,equally sensitive,
CC12CC1(C)C(=O)N(c1cc(Cl)cc(Cl)c1)C2=O (stereo not drawn) [procymidone],,,"Hyphal extension rate, wild-type [4, 8]: 0.21 ± 0.13 mm/hr; Hyphal extension rate, ΔFOS-1 [5, 8]: 0.48 ± 0.08 mm/hr"
C=CC1(C)OC(=O)N(c2cc(Cl)cc(Cl)c2)C1=O (stereo not drawn) [vinclozolin],,equally sensitive,"Hyphal extension rate, wild-type [4, 7]: 0.34 ± 0.11 mm/hr; Hyphal extension rate, ΔFOS-1 [5, 7]: 0.50 ± 0.05 mm/hr; Resistance of OS-1 mutant strains [6]: highly resistant"

# Source: patent publication US6716625B1, “Histidine kinases of Aspergillus and other fungal species, related compositions, and methods of use” (priority 1997, dated 2004)
